Results from PMC6364417, “Kinase inhibitor library screening identifies synergistic drug combinations effective in sensitive and resistant melanoma cells” (Journal of Experimental & Clinical Cancer Research : CR, 2019).
Where two headings read alike, the source gives them in different places.

Tests used:
Test in all cases: Kinase inhibitor library screening, PrestoBlue cell viability, 1 or 10 μM, 72 h
[1] = test system: IGR37-GP cells (Dabrafenib-resistant)
Protocol: (§1) After 72 h of treatment, cell viability was assessed using the PrestoBlue Cell Viability Reagent (ThermoFisher Scientific). Measurements were performed with the CLARIOstar Monochromator microplate reader (BMG Labtech).
(§2) Kinase inhibitor library screening. […] Each cell line was treated in its sensitive form (parental), and also as 2 resistant derivatives, which were made resistant to either Vemurafenib (XP) or Dabrafenib (GP). Drugs were added at 2 different concentrations, 1 and 10 μM, for 72 h and cell viability was assessed using the PrestoBlue Cell Viability assay. Results are depicted as % viability compared to untreated cells. Each cell line was analyzed at least in duplicate. […] (XLSX 95 kb)

[2] = test system: IGR37 cells (parental)
Protocol: as §1, §2

[3] = test system: A375-XP cells (Vemurafenib-resistant)
Protocol: as §1, §2

[4] = test system: IGR37-XP cells (Vemurafenib-resistant)
Protocol: as §1, §2

[5] = test system: 501Mel-XP cells (Vemurafenib-resistant)
Protocol: as §1, §2

[6] = test system: A375 cells (parental)
Protocol: as §1, §2

[7] = test system: A375-GP cells (Dabrafenib-resistant)
Protocol: as §1, §2

[8] = test system: 501Mel-GP cells (Dabrafenib-resistant)
Protocol: as §1, §2

[9] = IGR37 Parental, 10μΜ, 72 h, in %

C[C@@H]1CCN(C(=O)CC#N)C[C@@H]1N(C)c1ncnc2[nH]ccc12.O=C(O)CC(O)(CC(=O)O)C(=O)O [Tofacitinib citrate (CP-690550 citrate)]
cell viability, IGR37 GP, 10μΜ ([1]; IGR37 GP, 10μΜ, 72 h): 94.9% | cell viability, IGR37 GP, 1μΜ ([1]; IGR37 GP, 1μΜ, 72 h, in %): 98.3 | cell viability, IGR37 Parental, 10μΜ [2, 9]: 107.1 | cell viability, A375 XP, 1μΜ ([3]; A375 XP, 1μΜ, 72 h, in %): 103.3 | cell viability, IGR37 XP, 10μΜ ([4]; IGR37 XP, 10μΜ, 72 h): 83.2% | cell viability, IGR37 XP, 1μΜ ([4]; IGR37 XP, 1μΜ, 72 h, in %): 104.3 | cell viability, 501Mel XP, 1μΜ ([5]; 501Mel XP, 1μΜ, 72 h, in %): 94.0 | cell viability, 501Mel XP, 10μΜ ([5]; 501Mel XP, 10μΜ, 72 h, in %): 90.7 | cell viability, A375 Parental, 10μΜ ([6]; A375 Parental, 10μΜ, 72 h, in %): 93.7 | cell viability, A375 GP, 1μΜ ([7]; A375 GP, 1μΜ, 72 h, in %): 103.6 | cell viability, 501Mel GP, 1μΜ ([8]; 501Mel GP, 1μΜ, 72 h, in %): 103.5 | cell viability, 501Mel GP, 10μΜ ([8]; 501Mel GP, 10μΜ, 72 h, in %): 93.7

Cc1ccccc1-n1c(Cn2cnc3c(N)ncnc32)nc2cccc(C)c2c1=O [IC-87114]
Cell viability in kinase inhibitor library screening, IGR37 GP, 10μΜ ([1]; IGR37 GP, 10μΜ, 72 h): 91.5% | Cell viability in kinase inhibitor library screening, IGR37 Parental, 1μΜ ([2]; IGR37 Parental, 1μΜ, 72 h, in %): 97.2 | Cell viability in kinase inhibitor library screening, IGR37 Parental, 10μΜ [2, 9]: 99.7 | Cell viability in kinase inhibitor library screening, A375 XP, 1μΜ ([3]; A375 XP, 1μΜ, 72 h): 103.8 | Cell viability in kinase inhibitor library screening, A375 XP, 10μΜ ([3]; A375 XP, 10μΜ, 72 h): 102.9 | Cell viability in kinase inhibitor library screening, IGR37 XP, 10μΜ ([4]; IGR37 XP, 10μΜ, 72 h): 77.2% | Cell viability in kinase inhibitor library screening, IGR37 XP, 1μΜ ([4]; IGR37 XP, 1μΜ, 72 h, in %): 93.3 | Cell viability in kinase inhibitor library screening, 501Mel XP, 1μΜ ([5]; 501Mel XP, 1μΜ, 72 h, in %): 98.1 | Cell viability in kinase inhibitor library screening, 501Mel XP, 10μΜ ([5]; 501Mel XP, 10μΜ, 72 h, in %): 83.6 | Cell viability in kinase inhibitor library screening, A375 Parental, 10μΜ ([6]; A375 Parental, 10μΜ, 72 h): 90.3 | Cell viability in kinase inhibitor library screening, A375 Parental, 1μΜ ([6]; A375 Parental, 1μΜ, 72 h): 98.8 | Cell viability in kinase inhibitor library screening, A375 GP, 1μΜ ([7]; A375 GP, 1μΜ, 72 h): 93.5 | Cell viability in kinase inhibitor library screening, A375 GP, 10μΜ ([7]; A375 GP, 10μΜ, 72 h): 88.8 | Cell viability in kinase inhibitor library screening, 501Mel GP, 1μΜ ([8]; 501Mel GP, 1μΜ, 72 h, in %): 100.1 | Cell viability in kinase inhibitor library screening, 501Mel GP, 10μΜ ([8]; 501Mel GP, 10μΜ, 72 h, in %): 87.1

FC(F)(F)c1ccc(/C=C/c2nc(COc3ccc(CCCCn4ccnn4)cc3)co2)cc1 [Mubritinib (TAK 165)]
cell viability, IGR37 GP, 1μΜ [1]: 99.8 | cell viability, IGR37 GP, 10μΜ [1]: 95.3 | cell viability, IGR37 Parental, 1μΜ [2]: 98.7 | cell viability, IGR37 Parental, 10μΜ [2]: 100.1 | cell viability, A375 XP, 1μΜ [3]: 94.9 | cell viability, A375 XP, 10μΜ [3]: 98.4 | cell viability, IGR37 XP, 1μΜ [4]: 98.3 | cell viability, IGR37 XP, 10μΜ [4]: 81.5 | cell viability, 501Mel XP, 1μΜ [5]: 92.8 | cell viability, 501Mel XP, 10μΜ [5]: 81.6 | cell viability, A375 Parental, 1μΜ [6]: 94.8 | cell viability, A375 Parental, 10μΜ [6]: 91.7 | cell viability, A375 GP, 1μΜ [7]: 93.7 | cell viability, A375 GP, 10μΜ [7]: 94.7 | cell viability, 501Mel GP, 10μΜ [8]: 95.8

COc1ccc2c(Oc3ccc(NC(=O)c4c(C)n(CC(C)(C)O)n(-c5ccccc5)c4=O)nc3)ccnc2c1 [AMG458]
cell viability (kinase inhibitor library screening) ([1]; IGR37 GP, 1μΜ, 72 h): 97.0% | cell viability (kinase inhibitor library screening) ([1]; IGR37 GP, 10μΜ, 72 h): 88.1% | cell viability (kinase inhibitor library screening) ([2]; IGR37 Parental, 1μΜ, 72 h): 107.7% | cell viability (kinase inhibitor library screening) ([3]; A375 XP, 1μΜ, 72 h): 106.6% | cell viability (kinase inhibitor library screening) ([3]; A375 XP, 10μΜ, 72 h): 96.2% | cell viability (kinase inhibitor library screening) ([4]; IGR37 XP, 1μΜ, 72 h): 94.8% | cell viability (kinase inhibitor library screening) ([4]; IGR37 XP, 10μΜ, 72 h): 55.7% | cell viability (kinase inhibitor library screening) ([5]; 501Mel XP, 10μΜ, 72 h): 51.7% | cell viability (kinase inhibitor library screening) ([6]; A375 Parental, 10μΜ, 72 h): 96.0% | cell viability (kinase inhibitor library screening) ([6]; A375 Parental, 1μΜ, 72 h): 106.7% | cell viability (kinase inhibitor library screening) ([7]; A375 GP, 1μΜ, 72 h): 107.8% | cell viability (kinase inhibitor library screening) ([7]; A375 GP, 10μΜ, 72 h): 90.9% | cell viability (kinase inhibitor library screening) ([8]; 501Mel GP, 1μΜ, 72 h): 92.9% | cell viability (kinase inhibitor library screening) ([8]; 501Mel GP, 10μΜ, 72 h): 70.8%
